Assays:
[1] = Acute toxicity in mice; conditions: in vivo, iv; mouse, intravenously injected; read-out: LD₅₀
Procedure: (§1) DBcAMP was intravenously injected into rats and mice to thereby examine the acute toxicity thereof. As a result, LD₅₀ of this compound to rat was 459 mg/kg while that to mouse was 545 mg/kg.

[2] = Acute toxicity in rats; conditions: in vivo, iv; rat, intravenously injected; read-out: LD₅₀
Procedure: The cAMP derivative of formula (I) and a salt thereof were administered to rats in order to examine the acute toxicities of these compounds.
as §1

[3] = test system: patients, who suffered from cerebrovascular dementia or Alzheimer's type senile dementia with Parkinson's disease as a complication; assay: Clinical administration of DBcAMP by intravenous drip infusion to dementia patients; type: in vivo; conditions: for Side effect / Progress after administration and evaluation (symptom/ condition): 300 mg/day intravenous drip infusion for 8 hours
Procedure: 300 mg of sodium N⁶-2'-0-dibutyryladenosine-3',5'-cyclic phosphate (hereinafter, abbreviated as DBcAMP) was dissolved in a saline and administered to five patients, who suffered from cerebrovascular dementia or Alzheimer's type senile dementia with Parkinson's disease as a complication, by intravenous drip infusion for approximately 8 hours per day continuously.
These patients gave no response to a call and their intellectual level was decreased. […] Therefore, it was recognized that these patients suffered from serious dementia.

[4] = Test 2: patient five, Cerebrovascular dementia

In the case of `CCCC(=O)Nc1ncnc2c1ncn2[C@@H]1O[C@@H]2COP(=O)(O)O[C@H]2[C@H]1OC(=O)CCC` [DBcAMP, sodium N⁶-2'-0-dibutyryladenosine-3',5'-cyclic phosphate], the LD50 [1] is reported as 545 mg/kg, the LD50 [2] is reported as 459 mg/kg and the Side effect ([3]; Test 1: patient three, Alzheimer's type dementia) is reported as “None”. The “Progress after administration and evaluation (symptom/ condition)” value (“Progress” below) [3, 4] was “Showed "Yes" or "No" for simple question by shaking head 1 week after the administration. No speech but groan. Remarkable improvement in symptoms caused by a decline in brain function, compared before the administration”, the Side effect [3, 4] was “None” and the “Progress” value ([3]; Test 3: patient four, Cerebrovascular dementia (with Parkinson's disease)) was “Groaned in night from the second day of the administration, after a year's silence. Groaning became larger thereafter. Improvement in various symptoms caused by a decline in brain function”. The Side effect ([3]; Test 3: patient four, Cerebrovascular dementia) was “None”, the “Progress” value ([3]; Test 4: patient two, Alzheimer's type dementia (with Parkinson's disease)) was “Answered to call 1 week after the administration. Soliloquized in night. Remarkable improvement in symptoms caused by a decline in brain function” and the Side effect ([3]; Test 4: patient two, Alzheimer's type dementia) was “None”. The Side effect ([3]; Test 5: patient one, Cerebrovascular dementia, multiple cerebral infarct) was “None” and the “symptoms of the complicated Parkinson's disease” value ([3]; five patients, 300 mg/day intravenous drip infusion) was “disappearance of oily skin and reduced myosclerosis”.
